# Tested on: Akt phosphorylation in human liver-derived HLF cell
# Experiment: Akt phosphorylation activity in Gβ expression inhibited HLF cell (siRNA, Western blot)
# Type: cell-based
# Conditions: FIG. 16
# Method: The effect of Gβ expression inhibition by a siRNA method against the Akt phosphorylation activity of Compound 6 in a human liver-derived HLF cell was evaluated as follows.
# The HLF cells were seeded in a Dulbecco MEM medium containing 10% FCS in a 24-well dish (IWAKI, Product No. 3820-024) at a ratio of 3.75×10^4 cells/well. The cells were cultured at 37° C. for 6 hours in the presence of 5% CO2 to achieve sufficient attachment, a siRNA was transfected into the cells at the concentration of 100 nM using Dharmafect 2 (Dharmacon, Product No. T-2002-02), and the resultant cells were cultured at 37° C. for 48 hours in the presence of 5% CO2. […] Each solution was subjected to an SDS polyacrylamide electrophoresis, and the phosphorylated Akt amount, the Gβ1 amount, the Gβ2 amount, and the Gβ4 amount were measured by a Western blot method using an anti-phosphorylated Akt antibody (Cell Signaling Technologies, Product No. 9271), an anti-Gβ1 antibody (SantaCruz, Product No. sc-379), an anti-Gβ2 antibody (SantaCruz, Product No. sc-380), and an anti-Gβ4 antibody (SantaCruz, Product No. sc-382). […]
compound,measurement,setting,value
O=C1NCC2=C1[C@@H](c1ccccc1)N(C(=O)CO)[C@@H]1CCCC[C@H]1N2 [Compound 6],phosphorylated Akt amount,"HLF cells with Gβ siRNA (Gβ1, Gβ2, Gβ4)",not detected at any Compound 6 concentration
same,phosphorylated Akt amount,HLF cells with negative control siRNA,increased depending on the Compound 6 concentration

# Reference: patent US9440980B2, “Remedy for diabetes” (EA Pharma Co., Ltd., priority 2007, dated 2016)
